Legend:
human α3β2 nAChR = human α3β2 nAChR (Homo sapiens, UniProt P17787+P32297); type: cell-based
rat α3β2 nAChR = rat α3β2 nAChR (Rattus norvegicus, UniProt P04757+P12390); type: cell-based
Kunming mice = details: mouse, in vivo, sc

Chain of human α3β2 nAChR (P32297 32-505 limits assumed): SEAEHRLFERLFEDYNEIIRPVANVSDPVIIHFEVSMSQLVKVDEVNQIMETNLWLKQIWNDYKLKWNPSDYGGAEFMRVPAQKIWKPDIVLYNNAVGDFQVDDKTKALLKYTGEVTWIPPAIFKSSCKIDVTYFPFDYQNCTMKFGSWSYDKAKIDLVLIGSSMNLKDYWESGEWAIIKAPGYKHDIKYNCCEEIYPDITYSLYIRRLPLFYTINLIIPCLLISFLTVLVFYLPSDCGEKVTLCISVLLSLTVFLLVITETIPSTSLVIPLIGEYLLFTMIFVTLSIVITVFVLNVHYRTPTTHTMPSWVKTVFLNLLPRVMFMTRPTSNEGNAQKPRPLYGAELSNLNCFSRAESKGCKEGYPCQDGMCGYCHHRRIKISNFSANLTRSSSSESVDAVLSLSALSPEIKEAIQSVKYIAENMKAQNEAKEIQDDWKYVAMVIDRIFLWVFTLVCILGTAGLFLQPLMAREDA
Chain of human α3β2 nAChR (P17787 26-502 limits assumed): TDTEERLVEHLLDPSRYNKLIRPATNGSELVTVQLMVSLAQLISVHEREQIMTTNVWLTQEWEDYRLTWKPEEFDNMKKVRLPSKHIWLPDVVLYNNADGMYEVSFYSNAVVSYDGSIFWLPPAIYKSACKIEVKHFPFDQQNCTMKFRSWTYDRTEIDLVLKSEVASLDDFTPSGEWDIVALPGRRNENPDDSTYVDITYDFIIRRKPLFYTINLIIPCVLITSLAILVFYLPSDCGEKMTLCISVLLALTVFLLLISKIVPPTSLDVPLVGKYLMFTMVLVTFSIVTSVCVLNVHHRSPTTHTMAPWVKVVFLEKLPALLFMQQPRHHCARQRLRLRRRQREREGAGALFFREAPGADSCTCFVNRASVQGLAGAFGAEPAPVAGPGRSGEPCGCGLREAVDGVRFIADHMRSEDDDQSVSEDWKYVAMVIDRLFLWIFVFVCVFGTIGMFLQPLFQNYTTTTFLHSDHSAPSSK
Chain of rat α3β2 nAChR (P04757 26-499 limits assumed): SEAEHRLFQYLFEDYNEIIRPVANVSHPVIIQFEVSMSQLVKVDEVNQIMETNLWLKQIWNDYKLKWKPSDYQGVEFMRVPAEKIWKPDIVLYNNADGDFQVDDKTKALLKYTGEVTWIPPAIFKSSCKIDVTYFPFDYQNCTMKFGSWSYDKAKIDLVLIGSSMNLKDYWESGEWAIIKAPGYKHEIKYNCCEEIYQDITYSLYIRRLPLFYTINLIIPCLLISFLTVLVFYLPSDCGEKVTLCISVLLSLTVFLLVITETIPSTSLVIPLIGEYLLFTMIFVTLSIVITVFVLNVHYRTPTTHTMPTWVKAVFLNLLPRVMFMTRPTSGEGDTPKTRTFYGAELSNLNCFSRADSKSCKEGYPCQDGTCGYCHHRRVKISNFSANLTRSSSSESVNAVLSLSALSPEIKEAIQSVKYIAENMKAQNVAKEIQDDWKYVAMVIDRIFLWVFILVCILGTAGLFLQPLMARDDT
Chain of rat α3β2 nAChR (P12390 25-500 limits assumed): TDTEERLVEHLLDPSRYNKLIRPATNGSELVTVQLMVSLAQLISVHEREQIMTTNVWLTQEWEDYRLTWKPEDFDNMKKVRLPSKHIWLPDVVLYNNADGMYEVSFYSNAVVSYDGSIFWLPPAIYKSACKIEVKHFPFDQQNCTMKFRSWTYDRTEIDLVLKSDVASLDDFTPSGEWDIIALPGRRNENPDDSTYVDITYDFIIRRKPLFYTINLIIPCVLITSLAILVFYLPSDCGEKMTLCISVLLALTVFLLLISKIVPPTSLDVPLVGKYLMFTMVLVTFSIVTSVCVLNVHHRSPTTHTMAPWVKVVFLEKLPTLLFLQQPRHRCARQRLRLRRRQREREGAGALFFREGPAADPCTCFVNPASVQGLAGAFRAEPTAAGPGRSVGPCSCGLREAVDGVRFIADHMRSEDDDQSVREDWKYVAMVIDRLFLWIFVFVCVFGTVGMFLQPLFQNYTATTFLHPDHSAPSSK

Question: Which results are given for `CC[C@H](C)[C@@H]1NC(=O)[C@H](CCC(=O)O)NC(=O)[C@@H]2CCCN2C(=O)[C@H](Cc2c[nH]cn2)NC(=O)[C@H](CC(=O)O)NC(=O)[C@H](C(C)C)NC(=O)[C@H](CC(N)=O)NC(=O)[C@@H]2CSSC[C@H](NC(=O)CNC(=O)[C@@H](N)CCSC)C(=O)N[C@@H](CSSC[C@@H](C(=O)O)NC1=O)C(=O)N[C@@H](CO)C(=O)N[C@@H](Cc1c[nH]cn1)C(=O)N1CCC[C@H]1C(=O)N[C@@H](C)C(=O)N2` [rLvIA]?
Answer: loss of potency versus native LvIA (human α3β2 nAChR): 2.7 fold; loss of potency versus native LvIA (rat α3β2 nAChR): 18.5 fold

Question: How did the “latency to thermal stimulus” value (Kunming mice) turn out when `CN1CC[C@]23c4c5ccc(O)c4O[C@H]2[C@@H](O)C=C[C@H]3[C@H]1C5` [Morphine] was run?
Answer: highest latency
